Two substances from patent US20120220528A1, “SYSTEMS AND METHODS FOR THERAPY OF KIDNEY DISEASE AND/OR HEART FAILURE USING CHIMERIC NATRIURETIC PEPTIDES” (MEDTRONIC, INC., priority 2011, published 2012) can be followed below.

Test [1] deals with Human renal medullary epithelial cells. As to the kind of experiment: In vitro cell-based assay of cGMP production. Particulars: 9000, 3000, 300, 30, 10 and 0 nM, 15 minutes, ELISA.
Test [2] concerns healthy canines. As to the kind of experiment: Healthy canines: diuresis and natriuresis after subcutaneous bolus. Particulars: SQ bolus, BNP 25 μg/kg. Format: in vivo, canine.
Test [3] relates to healthy canines. As to the kind of experiment: Healthy canines: diuresis and natriuresis with IV infusion. The note with it: one-hour IV infusion; CD-NP 100 ng/kg·min, BNP 30 ng/kg·min. It is filed as in vivo, canine.

Entries after “also recorded” stand apart in the source; their conditions may differ. Bridges are numbered along the chain shown (N, C = ends). Where no end group is shown, it is not given here.

As for “ANP: human atrial natriuretic peptide (Phoenix Pharmaceuticals), control; ligand to the NPR-A receptor (SLRRSSCFGGRMDRIGAQSGLGCNSFRY; disulfide 7-23 (inferred); ends not checked; UniProt P01160 124-151, looked up)”, the “stimulation of cGMP production” value in test [1] is on record as “significantly less”.
As to “BNP: commercial preparation of Natrecor; recombinant form of the 32 amino acid human B-type natriuretic peptide, comparative natriuretic peptide”, the “sodium excretion (natriuresis) following subcutaneous bolus” value with healthy canines [2] (CD-NP 27 μg/kg) is listed as “increase”. The “urine flow following subcutaneous bolus vs baseline” value in the test on healthy canines [2] (CD-NP 27 μg/kg (equimolar)) is listed as “increase; also recorded: statistically significant”. In addition, in the test on healthy canines [3], the sodium excretion entry is given as “increasing trend” and the “urine flow from baseline” value was “increasing trend”.
